Results on 25 compounds are retold here after patent publication US8933113B2 (Merck Sharp & Dohme Corp., priority 2011, dated 2015).

Bounds are passed on as bounds.

The experiment deals with T1, full-length human Mineralocorticoid Receptor (MR) (Homo sapiens, UniProt P08235).
T1 construct: host or cells: PathHunter CHO-K1 cells
T1 sequence (P08235 1-984): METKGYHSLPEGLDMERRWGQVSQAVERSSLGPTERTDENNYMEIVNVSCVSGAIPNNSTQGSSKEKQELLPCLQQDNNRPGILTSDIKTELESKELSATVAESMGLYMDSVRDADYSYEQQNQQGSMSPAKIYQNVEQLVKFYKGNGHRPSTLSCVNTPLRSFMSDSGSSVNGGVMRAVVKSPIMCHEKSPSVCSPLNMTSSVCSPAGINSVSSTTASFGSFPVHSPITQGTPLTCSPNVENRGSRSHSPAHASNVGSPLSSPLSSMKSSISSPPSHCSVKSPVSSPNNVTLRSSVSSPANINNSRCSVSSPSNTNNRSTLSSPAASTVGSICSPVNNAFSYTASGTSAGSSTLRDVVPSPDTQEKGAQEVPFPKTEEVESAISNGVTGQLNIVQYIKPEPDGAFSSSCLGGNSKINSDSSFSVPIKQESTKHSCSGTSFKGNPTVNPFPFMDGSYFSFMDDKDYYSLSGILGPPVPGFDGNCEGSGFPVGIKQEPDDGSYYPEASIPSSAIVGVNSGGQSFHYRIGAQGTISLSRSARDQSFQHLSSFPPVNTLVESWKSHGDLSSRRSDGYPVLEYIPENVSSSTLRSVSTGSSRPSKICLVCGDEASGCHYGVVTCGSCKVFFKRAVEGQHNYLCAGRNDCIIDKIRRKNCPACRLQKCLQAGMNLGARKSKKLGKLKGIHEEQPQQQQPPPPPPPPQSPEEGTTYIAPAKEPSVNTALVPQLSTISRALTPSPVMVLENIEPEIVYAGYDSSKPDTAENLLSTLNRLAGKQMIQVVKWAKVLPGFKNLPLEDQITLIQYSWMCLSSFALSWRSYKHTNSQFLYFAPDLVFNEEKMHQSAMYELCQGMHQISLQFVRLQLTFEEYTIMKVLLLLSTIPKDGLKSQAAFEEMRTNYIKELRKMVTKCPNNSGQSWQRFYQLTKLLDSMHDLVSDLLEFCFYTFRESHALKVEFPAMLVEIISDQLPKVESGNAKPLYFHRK
The experiment in a line: human MR NH Pro assay (PathHunter Protein:Protein interaction assay), MR antagonist activity. It counts as cell-based. The settings on record: PathHunter CHO-K1 cells overexpressing human MR; aldosterone about 0.3 nM; 6 hours at 37° C.; luminescence; read-out: Primary Assay IP rating (IP = inflection point for a given dose-response titration curve). In outline: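 PathHunter enzyme-complementation assay in cells of full-length human MR recruitment of a coactivator peptide, run in antagonist mode against aldosterone at about 0.3 to 1.0 nM final. Compounds are in a 10-point, 1:3 series from a 4.4 mM top. Incubation is 6 h at 37° C, then detection reagent for 1 h at RT, with a luminescence read-out.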

Regarding `CCC(c1ccc(Cl)cc1)(c1noc(-c2ccc(F)cc2)n1)n1ccc2c(NS(C)(=O)=O)cccc21` (stereo not shown) [Compound 59, N-(1-{1-(4-chlorophenyl)-1-[5-(4-fluorophenyl)-1,2,4-oxadiazol-3-yl]propyl}-1H-indol-4-yl)methanesulfonamide], the IC50 was less than 100 nM.
For the compound `CCC(c1ccc(Cl)cc1)(c1noc(-c2ccc(Cl)cc2)n1)n1ccc2c(NS(C)(=O)=O)cccc21` (stereo not shown) [Compound 60, N-(1-{1-(4-chlorophenyl)-1-[5-(4-chlorophenyl)-1,2,4-oxadiazol-3-yl]propyl}-1H-indol-4-yl)methanesulfonamide], the IC50 was less than 100 nM.
The same measure for `CC[C@@](c1ccc(Cl)cc1)(c1noc(-c2ccc(OC)cc2)n1)n1ccc2c(NS(C)(=O)=O)cccc21` [Compound 61, (R)—N-(1-{1-(4-chlorophenyl)-1-[5-(4-methoxyphenyl)-1,2,4-oxadiazol-3-yl]propyl}-1H-indol-4-yl)methanesulfonamide]: less than 100 nM; for `CS(=O)(=O)Nc1cccc2c1ccn2C(c1ccc(Cl)cc1)c1nc(-c2ccccc2)no1` (stereo not shown) [Compound 63, N-{1-[(4-chlorophenyl)(3-phenyl-1,2,4-oxadiazol-5-yl)methyl]-1H-indol-4-yl}methanesulfonamide]: 500 to 5000 nM.
For `CC[C@@](c1ccc(Cl)cc1)(c1nc(-c2ccccc2)n[nH]1)n1ccc2c(NS(C)(=O)=O)cccc21` [Compound 64, (R)—N-{1-[1-(4-chlorophenyl)-1-(3-phenyl-1H-1,2,4-triazol-5-yl)propyl]-1H-indol-4-yl}methanesulfonamide], the IC50 lay within 500 to 5000 nM.
Under `CC[C@@](c1ccc(Cl)cc1)(c1nnc(C)[nH]1)n1ccc2c(NS(C)(=O)=O)cccc21` [Compound 65, (R)—N-{1-[1-(4-chlorophenyl)-1-(5-methyl-4H-1,2,4-triazol-3-yl)propyl]-1H-indol-4-yl}methanesulfonamide] stands 100 to 500 nM; under `CC[C@@](c1ccc(Cl)cc1)(c1nnc(C(F)(F)F)[nH]1)n1ccc2c(NS(C)(=O)=O)cccc21` [Compound 66, (R)—N-(1-{1-(4-chlorophenyl)-1-[5-(trifluoromethyl)-4H-1,2,4-triazol-3-yl]propyl}-1H-indol-4-yl)methanesulfonamide], 100 to 500 nM.
Under `CC[C@@](c1ccc(Cl)cc1)(c1nnc(C2CC2)o1)n1ccc2c(NS(C)(=O)=O)cccc21` [Compound 67, (R)—N-{1-[1-(4-chlorophenyl)-1-(5-cyclopropyl-1,3,4-oxadiazol-2-yl)propyl]-1H-indol-4-yl}methanesulfonamide] stands 100 to 500 nM.
Under `CCC(c1ccc(Cl)cc1)(c1nnc(C)o1)n1ccc2c(NS(C)(=O)=O)cccc21` (stereo not shown) [Compound 68, N-{1-[1-(4-chlorophenyl)-1-(5-methyl-1,3,4-oxadiazol-2-yl)propyl]-1H-indol-4-yl}methanesulfonamide] stands 100 to 500 nM; under `CCC(c1ccc(Cl)cc1)(c1nnc(C(F)(F)F)o1)n1ccc2c(NS(C)(=O)=O)cccc21` (stereo not shown) [Compound 69, N-(1-{1-(4-chlorophenyl)-1-[5-(trifluoromethyl)-1,3,4-oxadiazol-2-yl]propyl}-1H-indol-4-yl)methanesulfonamide], 100 to 500 nM.
`CCC(c1ccc(Cl)cc1)(c1nnc(-c2ccccc2)o1)n1ccc2c(NS(C)(=O)=O)cccc21` (stereo not shown) [Compound 70, N-{1-[1-(4-chlorophenyl)-1-(5-phenyl-1,3,4-oxadiazol-2-yl)propyl]-1H-indol-4-yl}methanesulfonamide]: the IC50 fell in the range of 500 to 5000 nM.
The same measure for `CCC(c1ccc(Cl)cc1)(c1nnc(-c2ccc(Cl)cc2)o1)n1ccc2c(NS(C)(=O)=O)cccc21` (stereo not shown) [Compound 71, N-(1-{1-(4-chlorophenyl)-1-[5-(4-chlorophenyl)-1,3,4-oxadiazol-2-yl]propyl}-1H-indol-4-yl)methanesulfonamide]: less than 100 nM; for `CCC(c1ccc(Cl)cc1)(c1nnc(-c2ccc(F)cc2)o1)n1ccc2c(NS(C)(=O)=O)cccc21` (stereo not shown) [Compound 72, N-(1-{1-(4-chlorophenyl)-1-[5-(4-fluorophenyl)-1,3,4-oxadiazol-2-yl]propyl}-1H-indol-4-yl)methanesulfonamide]: 100 to 500 nM; for `CCC(c1ccc(Cl)cc1)(c1nnc(-c2ccc(C(F)(F)F)cc2)o1)n1ccc2c(NS(C)(=O)=O)cccc21` (stereo not shown) [Compound 73, N-{1-[1-(4-chlorophenyl)-1-{5-[4-(trifluoromethyl)phenyl]-1,3,4-oxadiazol-2-yl}propyl]-1H-indol-4-yl}methanesulfonamide]: 100 to 500 nM.
The same measure for `CCC(c1ccc(Cl)cc1)(c1nnc(-c2ccc(OC)cc2)o1)n1ccc2c(NS(C)(=O)=O)cccc21` (stereo not shown) [Compound 74, N-(1-{1-(4-chlorophenyl)-1-[5-(4-methoxyphenyl)-1,3,4-oxadiazol-2-yl]propyl}-1H-indol-4-yl)methanesulfonamide]: 100 to 500 nM; for `CCC(c1ccc(Cl)cc1)(c1nnc(-c2cc(F)cc(F)c2)o1)n1ccc2c(NS(C)(=O)=O)cccc21` (stereo not shown) [Compound 75, N-(1-{1-(4-chlorophenyl)-1-[5-(3,5-difluorophenyl)-1,3,4-oxadiazol-2-yl]propyl}-1H-indol-4-yl)methanesulfonamide]: 500 to 5000 nM.
The same measure for `CS(=O)(=O)Nc1cccc2c1ccn2C(CC#N)(c1ccc(Cl)cc1)c1nnc(-c2ccccc2)o1` (stereo not shown) [Compound 76, N-{1-[1-(4-chlorophenyl)-2-cyano-1-(5-phenyl-1,3,4-oxadiazol-2-yl)ethyl]-1H-indol-4-yl}methanesulfonamide]: 100 to 500 nM; for `CCC(c1ccc(Cl)cc1)(c1nc(-c2ccccc2)co1)n1ccc2c(NS(C)(=O)=O)cccc21` (stereo not shown) [Compound 77, N-{1-[1-(4-chlorophenyl)-1-(4-phenyl-1,3-oxazol-2-yl)propyl]-1H-indol-4-yl}methanesulfonamide]: 500 to 5000 nM.
Take `COC(=O)C(c1cccc(-c2cccc(OC)c2)c1)n1ccc2c(NS(C)(=O)=O)cccc21` (stereo not shown) [Compound 78]: the IC50 was 500 to 5000 nM.
For the compound `CS(=O)(=O)Nc1cccc2c1ccn2C1(c2ccc(Cl)cc2)CCNC1=O` (stereo not shown) [Compound 84, N-{1-[3-(4-chlorophenyl)-2-oxopyrrolidin-3-yl]-1H-indol-4-yl}methanesulfonamide], the IC50 is 100 to 500 nM.
The same measure for `CCC(CO)(c1ccc(Cl)cc1)n1ccc2c(NS(C)(=O)=O)cc(F)cc21` (stereo not shown) [Compound 85, N-(1-(2-(4-chlorophenyl)-1-hydroxybutan-2-yl)-6-fluoro-1H-indol-4-yl)methanesulfonamide]: 100 to 500 nM; for `CCC(CO)(c1ccc(Cl)cc1Cl)n1ccc2c(NS(C)(=O)=O)cccc21` (stereo not shown) [Compound 87, N-(1-(2-(2,4-dichlorophenyl)-1-hydroxybutan-2-yl)-1H-indol-4-yl)methane sulfonamide]: 100 to 500 nM; for `CCC(CO)(c1ccc(C(F)(F)F)cc1)n1ncc2c(NS(C)(=O)=O)cccc21` (stereo not shown) [Compound 89, N-(1-(1-hydroxy-2-(4-(trifluoromethyl)phenyl)butan-2-yl)-1H-indazol-4-yl)methanesulfonamide]: 100 to 500 nM.
The same measure for `CCC(c1ccc(Cl)cc1)(n1ncc2c(NS(=O)(=O)NC)cccc21)C(C)(C)O` (stereo not shown) [Compound 94]: less than 100 nM; for `CCC(c1ccc(Cl)cc1)(n1ncc2c(NS(=O)(=O)N(C)C)cccc21)C(C)(C)O` (stereo not shown) [Compound 95, 3-(1-(3-(4-chlorophenyl)-2-hydroxy-2-methylpentan-3-yl)-1H-indazol-4-yl)-1,1-dimethyl-sulfonylurea]: 100 to 500 nM.
